{"source": "patent US7311919B2", "about": "“Agents for treating osteoporosis and inhibiting osteoclast formation” (Simpson Biotech Co., Ltd., priority 2003, dated 2007)", "tested_on": "osteoclasts", "test": "Osteoclast formation in co-culture of myelocytes and osteoblasts (TRAP staining)", "format": "cell-based", "details": "2 U/ml", "procedure": "Myelocytes and osteoblasts were co-cultured in vitro and the numbers of osteoclasts formed were measured. Myelocytes will differentiate into osteoclasts expressing tartrate-resisted acidic phosphatase (TRAP) when vitamin D is present in the coculture. These osteoclasts could be identified by staining for TRAP. Therefore the development of osteoclasts could be assayed by co-culturing myelocytes with osteoblasts.\nOsteoblasts and, myelocytes were co-cultured in 24-well plate. PTH (100 ng/ml), 1α, 25 (OH)2VD3 (10^−8 M), water extraction of the mycelium of C. Sinensis 3 mg/ml, 300 μg/ml, 30 μg/ml, 3 μg/ml or Elcatonin 2 U/ml were added. Samples were numbered No. 1˜No. 6. Each sample was cultured in 4 wells. Culture was maintained for 6 days with medium changed every two days.\nAfter coculturing, TRAP-positive cells were stained to dark red color. The numbers of TRAP-positive osteoclasts that have more than 3 nucleuses were counted. The average numbers of osteoclasts from 4 samples were the number of osteoclasts.\nThe numbers of osteoclasts in the 1α, 25 (OH)2D3 sample was considered 100%. The percentage of osteoclasts formed of experimental group was calculated using formula 1. Student's t-test was used to examine the significance.\nThe formation of osteoclasts (%) osteoclast cell numbers/osteoclast cell numbers in medium with 1α,25(OH)2D3×100 (formula 1)", "data": [{"substance": "Elcatonin", "values": [{"measurement": "Formation of osteoclasts (%)", "setting": "1α,25(OH)2D3 sample = 100%", "value": 13.8, "unit": "%"}, {"measurement": "Average Osteoclast cell numbers (n = 4)", "setting": "6 days co-culture", "value": 113.0}]}]}
